According to patent US10391151B2, “Dilute surfactant or isolated surfactant protein solution for the reduction of surface tension in the lung” (The Trustees of the Stevens Institute of Technology, priority 2015, dated 2019):
Where no end group is shown, it is not given here. The star is where a group is joined. Biotin = O=C1N[C@H]2[C@H](CS[C@H]2CCCCC(=O)*)N1

Columns and labels:
[1] = test system: heterogeneously flooded region of the isolated, perfused adult rat lung; assay: Ventilation injury score in the isolated, perfused adult rat lung (Method 2); details: for Injury score: flooding solution normal saline with 5% albumin, solutes at about the concentrations present in 1% SURVANTA solution, n=1 or 2/group (FIG. 2A)
Excerpt: Method 2. Ventilation ‘injury score’ in the adult rat lung. In the isolated, perfused adult rat lung, a surface alveolus is micropunctured and a non-fluorescent test solution is instilled. In experimental regions, a sufficiently large volume of liquid is instilled to generate a pattern of heterogeneous alveolar flooding; in control regions, a sufficiently small volume of liquid is instilled that the liquid spontaneously clears from the region, leaving behind a micropunctured-but-aerated region. Fluorescent dye, at a low concentration verified not to alter surface tension, is included in the perfusate. The region is imaged by confocal microscopy over a five minute baseline period at a constant transpulmonary pressure of 5 cm H2O. Five ventilation cycles are supplied to the lung, at 0.33 Hz with a positive end-expiratory pressure of 15 cm H2O and a tidal volume of 6 ml/kg body weight. The lung is then returned to a constant transpulmonary pressure of 5 cm H2O and imaged for 10 additional minutes. Alveolar liquid fluorescence at all time points is normalized by capillary fluorescence.
At baseline, alveolar liquid fluorescence (in flooded alveoli of experimental regions or in the liquid lining layer of control, aerated regions) is low and constant in all regions. Following ventilation, alveolar liquid fluorescence remains unchanged in aerated regions but continually increases with time in heterogeneously flooded regions. […] The increase above baseline in normalized alveolar liquid fluorescence at the last time point of the experiment is used as an injury score. The injury score, which indicates the rate of increase of normalized fluorescence following ventilation, correlates with surface tension of the test solution.
2. degree of ventilation induced injury in a region of the isolated, perfused adult rat lung in which surface alveoli have been flooded, in a heterogeneous fashion, with a test solution;

[2] = test system: surface alveoli of the isolated adult rat lung; assay: Surface tension determination in alveoli of the isolated adult rat lung (Method 1)
Procedure: Method 1. Surface tension determination in the adult rat lung. […] In flooded alveoli, the air-liquid interface forms a meniscus, at which surface tension is determined as follows. Alveolar air pressure is determined with a transducer at the trachea of the constantly-inflated lung. Alveolar liquid phase pressure is determined by servo-nulling pressure measurement. Meniscus radius of curvature is determined by confocal microscopy. Surface tension is calculated according to the Lapalce relation.
1. direct surface tension determination in surface alveoli of the isolated adult rat lung, which contains native lung surfactant, following alveolar instillation of a test solution;

[3] = 10 μM NaOH alone, without dextran, in the absence or presence of SURVANTA

**Q.** CCCCCCCCCCCCCCCC(=O)OC[C@H](COP(=O)([O-])OCC[N+](C)(C)C)OC(=O)CCCCCCCCCCCCCCC [DPPC, dipalmitoylphosphatidylcholine, reference compound] was tested. Which Injury score [1] did it give?
**A.** Only SP-C and sSP-C lower injury score

**Q.** What does the source list for [Na+].[OH-] [NaOH]?
**A.** Effect on surface tension [2, 3]: no effect; Effect on lung injury [1, 3]: no effect

**Q.** With fibrinogen as the molecule, how does the “Facilitation of the surface activity of 1 vol % SURVANTA” value ([2]; 5 w/v % solute, adult rat lung, dextran negative charge imparted by 10 μM NaOH (FIGS. 1A and B)) read?
**A.** facilitate

**Q.** Which Injury score [1] does the source give for “sSP-Css-ion lock-B: a variant of sSP-Css-ion lock with a biotinylated N-terminal (Biotin-GIPSSPVHLKRLLIVVVVVELIVKVIVGALLMGL)” here?
**A.** lower injury score

B1: SP-B: surfactant protein B isolated from pulmonary alveolar proteinosis patients (protein, UniProt P07988 201-279, looked up)
Pulmonary …: FPIPLPYCWLCRALIKRIQAMIPKGALAVAVAQVCRVVPLVAGGICQCLAERYSVILLDTLLGRMLPQLVCRLVLRCSM
modifications: Pulmonary surfactant-associated protein B
notes: surfactant protein B isolated from pulmonary alveolar proteinosis patients
**Q.** How did the Injury score [1] turn out when B1 was run?
**A.** Only SP-C and sSP-C lower injury score
